For the experiment, the target named is T1, WNK2 (Homo sapiens, UniProt Q9Y3S1).
T1 construct: purchased Thermo Fisher Scientific (Life Technologies) SelectScreen
As to the kind of experiment: SelectScreen LanthaScreen. It is filed as binding. As to conditions: read-out: % displacement. Put shortly: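 Percent values come from Thermo SelectScreen profiling of NU5455, combining activity and binding assays. CSF1R was run in Z'LYTE format at Km app ATP, and CAMK1 in Adapta format with ATP listed at 10.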
A general note: In TR-FRET formats the signal depends on donor and acceptor labels being close together.

T1 sequence (Q9Y3S1 whole entry): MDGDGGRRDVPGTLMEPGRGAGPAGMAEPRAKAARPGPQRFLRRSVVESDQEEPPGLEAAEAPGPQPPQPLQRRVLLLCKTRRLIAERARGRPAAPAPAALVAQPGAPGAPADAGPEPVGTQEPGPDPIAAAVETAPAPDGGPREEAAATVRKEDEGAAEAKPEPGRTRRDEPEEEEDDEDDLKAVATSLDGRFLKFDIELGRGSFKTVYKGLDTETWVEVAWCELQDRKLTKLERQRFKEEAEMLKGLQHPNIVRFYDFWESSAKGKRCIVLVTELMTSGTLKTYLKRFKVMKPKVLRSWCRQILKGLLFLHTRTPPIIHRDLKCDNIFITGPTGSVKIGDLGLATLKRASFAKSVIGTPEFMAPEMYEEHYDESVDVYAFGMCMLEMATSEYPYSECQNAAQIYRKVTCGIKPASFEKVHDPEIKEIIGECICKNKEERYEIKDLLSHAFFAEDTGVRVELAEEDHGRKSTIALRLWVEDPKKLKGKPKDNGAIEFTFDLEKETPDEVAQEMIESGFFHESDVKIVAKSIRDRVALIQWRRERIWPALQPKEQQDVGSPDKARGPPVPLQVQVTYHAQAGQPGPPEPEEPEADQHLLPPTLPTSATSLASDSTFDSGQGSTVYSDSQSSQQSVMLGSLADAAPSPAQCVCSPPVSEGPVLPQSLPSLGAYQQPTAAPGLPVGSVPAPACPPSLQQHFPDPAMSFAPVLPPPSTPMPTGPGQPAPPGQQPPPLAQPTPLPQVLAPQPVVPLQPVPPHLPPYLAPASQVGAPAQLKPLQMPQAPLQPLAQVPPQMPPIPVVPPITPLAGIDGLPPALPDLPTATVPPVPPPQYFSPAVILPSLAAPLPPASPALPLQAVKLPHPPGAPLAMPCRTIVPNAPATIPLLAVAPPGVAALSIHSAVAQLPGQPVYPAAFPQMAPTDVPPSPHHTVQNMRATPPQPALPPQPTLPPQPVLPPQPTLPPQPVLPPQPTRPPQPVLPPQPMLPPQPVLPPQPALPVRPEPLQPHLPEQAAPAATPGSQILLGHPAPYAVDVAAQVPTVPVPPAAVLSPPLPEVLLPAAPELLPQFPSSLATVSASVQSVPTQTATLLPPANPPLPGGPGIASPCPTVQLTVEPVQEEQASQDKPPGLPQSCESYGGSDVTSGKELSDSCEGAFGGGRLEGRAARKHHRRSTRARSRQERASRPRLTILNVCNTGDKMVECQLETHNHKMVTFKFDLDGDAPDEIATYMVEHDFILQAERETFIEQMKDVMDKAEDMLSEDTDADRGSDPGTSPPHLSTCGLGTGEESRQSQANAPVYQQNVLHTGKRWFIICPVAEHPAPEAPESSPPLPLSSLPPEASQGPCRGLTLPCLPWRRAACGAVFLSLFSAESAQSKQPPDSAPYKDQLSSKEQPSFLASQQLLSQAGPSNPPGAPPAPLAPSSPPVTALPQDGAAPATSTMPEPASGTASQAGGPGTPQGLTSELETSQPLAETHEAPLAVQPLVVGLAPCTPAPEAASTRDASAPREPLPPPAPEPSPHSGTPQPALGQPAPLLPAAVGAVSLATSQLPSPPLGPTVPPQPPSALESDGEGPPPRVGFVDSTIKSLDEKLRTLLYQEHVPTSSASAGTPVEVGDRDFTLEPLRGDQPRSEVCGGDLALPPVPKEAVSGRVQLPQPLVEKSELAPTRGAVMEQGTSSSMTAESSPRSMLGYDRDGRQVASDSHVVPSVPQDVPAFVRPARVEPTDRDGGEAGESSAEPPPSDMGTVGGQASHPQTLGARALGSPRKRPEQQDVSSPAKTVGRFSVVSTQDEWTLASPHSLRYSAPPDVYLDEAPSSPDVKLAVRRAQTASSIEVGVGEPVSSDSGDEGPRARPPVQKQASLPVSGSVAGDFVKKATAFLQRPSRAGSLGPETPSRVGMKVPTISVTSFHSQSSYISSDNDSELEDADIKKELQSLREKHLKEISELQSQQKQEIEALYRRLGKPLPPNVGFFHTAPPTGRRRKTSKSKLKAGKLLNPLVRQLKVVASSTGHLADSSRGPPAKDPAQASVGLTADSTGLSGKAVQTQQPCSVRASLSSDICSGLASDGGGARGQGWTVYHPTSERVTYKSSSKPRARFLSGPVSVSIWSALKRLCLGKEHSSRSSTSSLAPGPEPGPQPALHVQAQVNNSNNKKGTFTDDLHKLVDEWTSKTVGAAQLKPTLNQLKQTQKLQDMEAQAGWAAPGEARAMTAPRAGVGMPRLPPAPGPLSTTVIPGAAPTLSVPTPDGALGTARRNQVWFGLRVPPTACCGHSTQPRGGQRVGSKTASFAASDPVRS

As to `CN(C(=O)CN1CCOCC1)c1ccc2sc3c(-c4cccc5c(=O)cc(N6CC7CCC(C6)O7)oc45)cccc3c2c1` [NU5455], the inhibition at 1 µM was -2.5%.

(Values after publication PMC6934184, “Selective DNA-PKcs inhibition extends the therapeutic index of localized radiotherapy and chemotherapy” (The Journal of Clinical Investigation, 2019).)
